The text below walks through data of patent US20100204328A1, “Solution and Method to Reduce, Treat and/or Prevent Oxidative Stress and Cell Activation” (priority 2006, published 2010).

Each structure is given as a SMILES string. Where two headings read alike, the source gives them in different places.

For one data set, the system named is White blood cells (WBC). As to the kind of experiment: Inhibition of cell activation/ROS-generation by addition of free radical scavengers (H2DCF-DA fluorescence). As to conditions: WBC preincubated 30-60 minutes, PMA or LPS stimulus, FIG. 15. Type of data set: cell-based, human. On the procedure:
Other macromolecules with SH sites could also be applied.
White blood cells (WBC) were isolated from freshly donated human whole blood. This was done by collecting whole blood from healthy donors on Heparin anticoagulation. Leukocytes were isolated out of the whole blood with the help of an isolation gradient (Polymorphprep). Isolated Leukocytes were diluted in PBS or RPMI 1640 cell culture media and a concentration of 2×10^6/ml was chosen. The cells were stored at 37° in 5% CO2. The cells were preincubated with the substances at 37° C. for 30-60 minutes. Afterwards the cells were stimulated with 50 ng/ml PMA or 30 EU/ml LPS. For ROS-measurement a fluorescence dye (dichlorodihydrofluorescein-diacetate, H2DCF-DA) was added at 10 μM final concentration. The cells were incubated with the substance, the fluorescence dye and the activator for 2 hrs and the fluorescence intensity kinetics was measured over time. To compare the result between two substances, the fluorescence intensity at a certain time point, e.g. 30 minutes) was recorded. For comparison the fluorescence at a certain time is shown in the diagram in FIG. 15.

A further data set has as its system isolated Leukocytes. The data set is described as follows: Design-of-experiments screening of antioxidants: intracellular free radical formation in PMA-stimulated isolated leukocytes (96-well plate, fluorescence kinetics). Type of data set: cell-based, human. As to conditions: model, other substances on a medium level, FIG. 9. As to the method:
An often discussed therapeutic intervention is the addition of substances with antioxidative properties to balance the oxidative/antioxidative system. In our work we performed a systematic screening of such antioxidants, see FIG. 2. The screening was done in a 96-well-plate setup where isolated Leukocytes from healthy donors were pre-incubated with antioxidants for 1 hour. The chosen substances were N-acetyl-cysteine (NAC), gluconic acid (GA), glutathione (GSH) and vitamin […] fluorescence dye was added as a marker for intracellular free radical formation. Afterwards the cells were stimulated by phorbol-myristate-acetate (PMA) and free radical formation was recorded as fluorescence signal over time. The dye in this assay is membrane-permeable and non-fluorescent when it is added. Diffusing once into the cell, enzymes convert it to a readily oxidizable fluorescence dye and the intracellular formation of free radicals can be measured. In order to perform a systematic screening of these substances we would have had to carry out a lot of experiments. Due to the lack of blood donors we chose the methodology of design of experiments, see FIG. 3. Here an experimental plan is generated on statistical basis and a mathematical model can be established. In our case we chose a Centrum Composite Circumscribed-Design (CCC), which is a combination of a full-factorial and a Central Composite-Design (CCD) with a center point. Every single experiment was carried out three times. Besides saving many experiments an additional advantage is the consideration of interactions and quadratic influences. The software tool Mode generates the experimental plan where the combinations of the substances vary according to the chosen CCC-Design, see FIG. 4. Out of the measured fluorescence kinetics a free-radical-inhibition-ratio was calculated and implemented. A ratio of 1 relates to 100% inhibition of free radical formation. The obtained data was fitted by multiple linear regression analysis, see FIG. 5. The influence of single substances, its quadratic terms and interactions between the substances are considered in the shown equation. The quality of the model fit is defined in the summary plot. R^2 stands for regression, Q^2 for prediction quality, MV for model validity and Rep for reproducibility. […] The model has to be further optimised. To identify a model-weakness a closer look into the model is required.

The test system of another data set is ROS. The data set is described as follows: ROS-inhibition with pre-incubation versus post-incubation (pre-stimulation) of cells. As to conditions: single substances, FIGS. 31 to 34. Type of data set: cell-based. On the procedure:
Therefore, the ROS-inhibition was tested in two different applications:
1. Pre-incubation (activation of cells after incubation with a substance or combination of substances according to the invention)
2. Post-incubation (addition of a substance or a combination of substances according to the invention after cell activation)
All substances or combinations thereof were tested in the same concentration ranges as in the screening of the combinations as described before.

The next data set has as its system CD11b. The data set is described as follows: CD11b expression of granulocytes in LPS-incubated whole blood by flow cytometry. Type of data set: cell-based. As to conditions: LPS 10/100 U/ml 45 minutes, then substance 4 hrs, FIG. 22. On the procedure: Whole blood was incubated with LPS (10/100 U/ml) for 45 minutes. Ethyl pyruvate, N-acetyl-cysteine and gluconate were added to the stimulated system and incubated for 4 hrs. CD11b Expression of granulocytes was measured with flow cytometry, see FIG. 22.
A general note: A flow cytometer gives signals particle by particle.

Data set [1] relates to WBC. The data set is described as follows: Reduction of ROS during perfusion through hollow fiber minimodule. Type of data set: cell-based, human. As to conditions: scavenger added to dialysis fluid, counter current, single pass, FIG. 19. On the procedure:
WBC were isolated from human blood donation. Cells were stimulated by PMA and after one hour incubation a fluorescence dye (H2DCF-DA) was added to the cells and incubated for another 25 mins. The cell suspension was pumped single pass through a hollow fiber minimodule. On the dialysate pathway dialysis fluid with or without radical scavenger was pumped in counter current. Fluorescence was measured at the dialyzer inlet and outlet and fluorescence reduction in the filter was calculated. Negative control: PBS-buffer without radical scavenger as dialysis fluid, see FIG. 19.

The conditions of data set [2]: cited from earlier work.
The conditions of data set [3]: FIG. 25; cited from earlier work.
The test system of the next data set is Interleukin 6. The data set is described as follows: IL-6 expression in LPS-incubated whole blood by flow cytometry. Type of data set: cell-based. As to conditions: whole blood with LPS, substance added directly or after 2 hrs, measured after 4 hrs; for expression of IL6: FIG. 21. An excerpt:
Further we analyzed intracellular IL-6 concentrations—indicator of proinflammatory cell activation—by flow cytometry and by this we were also able to analyze the percentage of […]/activated cells, see FIG. 20. Shown are the results for intracellular IL-6. Further data were generated to show: • (1) That use of LPS as primary stimulus instead of PMA (i.e. other cell activation pathway) is inducing similar activation pattern. LPS could stand for a septic/bacterial infection environment instead of a pro-oxidative environment. • (2) That additional and more complete interventions in the pathophysiological sequence through scavengers reduces also the expression of cellular surface markers like CD11b (an indicator of enhanced adhesion to vascular walls).
Whole blood was incubated with LPS; ethyl pyruvate and N-acetyl-cysteine, respectively were added directly or after 2 hrs. Expression of Interleukin 6 was measured after 4 hrs with flow cytometer, see FIG. 21.

In data set [4] the test system is WBC. The data set is described as follows: Inhibition of cell activation/ROS-generation by free radical scavengers via the membrane. As to conditions: low flux membrane, incubation 60 mins, PMA, FIG. 17. Type of data set: cell-based, human. On the procedure:
WBC were isolated from human blood donation. Cells were separated by a membrane from the second compartment which comprises a buffer-system containing a radical scavenger (incubation time 60 mins). Afterwards a fluorescence dye (H2DCF-DA) was added to the cells and incubated for 25 mins. Finally stimulation of WBCs was performed by PMA and fluorescence was measured over time, see FIG. 17.
Positive control: with stimulus (2nd compartment PBS-buffer),
Negative control: without stimulus (2nd compartment PBS-buffer)

Turning to `CC(=O)N[C@H]1C(O)O[C@H](CO)[C@@H](O)[C@@H]1O` (stereo partly drawn) [N-acetyl-glucosamine], in the data set on White blood cells (WBC), the free radical formation entry is recorded as “able to inhibit free radical formation”.
For the compound `N[C@@H](CCC(=O)N[C@@H](CS)C(=O)NCC(=O)O)C(=O)O` [glutathione], the free radical formation entry in the data set on White blood cells (WBC) is “able to inhibit free radical formation”. Moreover, in the data set on isolated Leukocytes, the “influence of the concentration of a single substance on the ROS-Inhibition ratio” value (“influence … on the ROS-Inhibition ratio” below) was “negative gradient with increasing concentration”. Also, the ROS inhibition with ROS was 55-65%.
As to `CC(=O)N[C@@H](CS)C(=O)O` [N-acetyl-cysteine], the “expression of CD11b adhesion marker” value with CD11b is “reduce expression of CD11b adhesion marker”. Moreover, in the data set with White blood cells (WBC), the free radical formation result was “able to inhibit free radical formation”. For the same compound, the “free radicals on the blood side in the dialyzer and in the intracellular compartment” value in the data set on WBC [1] is on record as “free radicals are reduced”. Also, in data set [2] (application as an antidote in acute situations), the “tolerability of rather high plasma levels” value was “well tolerated”. In addition, the plasma levels entry in [2] (intravenous application, compared with oral) is listed as “higher plasma levels”. Moreover, in [2] (oral application), the bioavailability result is “poor bioavailability” and the plasma levels is 3 to 30 µM. The “influence … on the ROS-Inhibition ratio” value in the data set with isolated Leukocytes is given as “quadratic character”. Besides, the ROS inhibition with ROS was 60-80%. For the same compound, in data set [3], the “plasma level at which first beneficial effects could be shown” value is 12 µM. Further, in the data set on Interleukin 6, the “number of IL-6 positive cells” value is reported as “reduce the number of IL-6 positive cells” and the “expression of IL6” value is listed as “reduce the expression of IL6”.
In the case of `CCOC(=O)C(C)=O` [ethyl pyruvate], the “expression of CD11b adhesion marker” value with CD11b is listed as “reduce expression of CD11b adhesion marker”. In the data set on WBC [1], the “free radicals on the blood side in the dialyzer and in the intracellular compartment” value is on record as “free radicals are reduced”. In the data set with Interleukin 6, the “number of IL-6 positive cells” value is given as “reduce the number of IL-6 positive cells” and the “expression of IL6” value was “reduce the expression of IL6”.
Take `O=C1O[C@H]([C@@H](O)CO)C(O)=C1O` [vitamin C]: the “influence … on the ROS-Inhibition ratio” value in the data set with isolated Leukocytes was “negative gradient with increasing concentration”. For the same compound, the ROS inhibition with ROS is given as 20-80%.
Turning to `O=C(O)[C@H](O)[C@@H](O)[C@H](O)[C@H](O)CO` [gluconic acid], the “free radical formation, scavenger acting through the membrane” value in the data set on WBC [4] is listed as “capable to inhibit”. Also, the “expression of CD11b adhesion marker” value with CD11b is reported as “reduce expression of CD11b adhesion marker”. In the data set with White blood cells (WBC), the free radical formation entry is reported as “able to inhibit free radical formation”. Also, the “influence … on the ROS-Inhibition ratio” value in the data set on isolated Leukocytes was “quadratic character”. Besides, the ROS inhibition with ROS was 15-30%.
